{
  "source": "patent US20060083794A1",
  "about": "“Use of an extract from the plant argania spinosa” (priority 2002, published 2006)",
  "test_system": "5-α-reductase",
  "test": "Metabolization of 14C testosterone to DHT in reconstructed epidermis (thin-layer chromatography, phosphoimager)",
  "assay_type": "cell-based, human",
  "settings": "Finasterid 10 μM; control = 100",
  "experimental": "• Epidermis SkinEthic (17 days, 0.63 cm^2) in culture, 37° C., 5% CO2 • Reference substance: Finasteride • Testosterone: [4-14-C]\nThe epidermis was precultivated for 24 hours on plates with 24 positions. The experiments with the products and the reference substance Finasterid (10 μm) were carried out three times (3 epidermises per experiment). After treatment for 24 hours, the media of the subepidermis were renewed and replaced by 300 μl of fresh culture medium. 100 μl of radioactively marked testosterone solution were applied to the upper surface (horny layer) of the epidermis (TO). After another 24 hours, the subepidermis medium was removed for analysis.\nThe steroids present in the culture medium were extracted for analysis of the metabolism and separated into their molecular derivatives by thin-layer chromatography (on silica gel). The quantity of transformed testosterone was determined by radioactive counting of the various spots using a phosphoimager.",
  "data": [
    {"compound": "CC(C)(C)NC(=O)[C@H]1CC[C@H]2[C@@H]3CC[C@H]4NC(=O)C=C[C@]4(C)[C@H]3CC[C@]12C", "note": "[Finasterid, Finasteride]", "values": [
      {"measurement": "DHT formed in %", "result": 8, "unit": "%"}
    ]}
  ]
}
